Patent publication US20250205208A1, “USE OF SU3327 IN PREPARATION OF MEDICAMENT FOR REDUCING CYTOTOXICITY AND NEPHROTOXICITY OF POLYMYXIN” (XIAMEN HANLIXIN PHARMACEUTICAL CO., LTD., priority 2023, published 2025)

What was measured:
[1] = system: mice having kidney damage induced by Polymyxin E; experiment: Mouse model of nephrotoxicity by Polymyxin E: urea nitrogen and creatinine in serum; format: in vivo, C57BL/6 mice
Description: (§1) C57BL/6 mice, male, 8-week-old, weighing 20-22 g, purchased from Vital River Laboratory Animal Technology Co., Ltd.
(§2) The mice were housed in the National Center for Veterinary Drug Safety Evaluation of China Agricultural University, fed with routine pelleted feed and free access to water, at a controlled temperature of (22±2)° C., and a humidity of (50±10) %. Adaptive housing was performed for 1 week before experiments.
(§3) […] were randomly divided into 6 groups (n=8 in each group), as follows:
(§4) Control group: the mice were intraperitoneally injected with an equivalent amount of normal saline.
(§5) Polymyxin E model group: the mice were intraperitoneally injected with Polymyxin E
(§6) at a single dose of 10 mg/kg body weight, twice a day, with an interval of 8 hours between doses; i.e., the mice were administered with Polymyxin E in 20 mg/kg body weight per day.
(§7) SU3327 control group: the mice were intraperitoneally injected with dissolved SU3327 at a single dose of 10 mg/kg body weight, once a day for 10 straight days; i.e., the mice were administered with SU3327 in 10 mg/kg body weight per day.
(§8) SU3327 high-dose protection group: the mice were intraperitoneally injected with SU3327 at a single dose of 10 mg/kg body weight, concurrently with Polymyxin E in 10 mg/kg, twice, with an interval of 8 hours between doses; i.e., the mice were administered with SU3327 in 10 mg/kg body weight per day, concurrently with Polymyxin E in 20 mg/kg body weight per day.
as §8, with “medium-dose” for “high-dose”, “[…]” for “10”
SU3327 low-dose protection group: the mice were intraperitoneally injected with SU3327 at a single dose of 2.5 mg/kg body weight, concurrently with Polymyxin E in 10 mg/kg, twice, with an interval of 8 hours between doses; i.e., the mice were administered with SU3327 in 2.5 mg/kg body weight per day, concurrently with Polymyxin E in 20 mg/kg body weight per day. […]
The blood samples collected from the mice were centrifuged at 3000 rpm for 10 min, and the supernatant was aspirated. The changes of urea nitrogen in serum and creatinine in serum were detected by an automatic biochemical detector.

[2] = in vivo; cited from earlier work
HEK293 cells = experiment: Cell viability test by CCK-8 method; format: cell-based, Human
Description: Human Embryonic Kidney cells (HEK293), preserved by National Center for Veterinary Drug Safety Evaluation of China Agricultural University.
Cytotoxicity was determined by a CCK-8 method. After HEK293 cells (5×10^4 cells/well) were seeded onto 96-well tissue culture plates and cultured for 24 hours, the cells were treated with SU3327 or Polymyxin E alone or in combination, with SU3327 in a final concentration of 5 μM, 2.5 μM, 1.25 μM and 0.625 μM; Polymyxin E in a final concentration of 2 mM; combination groups of SU3327 and Polymyxin E: Polymyxin E (2 mM)+SU3327 (5 μM), Polymyxin E (2 mM)+SU3327 (2.5 μM), Polymyxin E (2 mM)+SU3327 (1.25 μM), Polymyxin E (2 mM)+SU3327 (0.625 μM), and control group (Control) 0.1% DMSO. Following continued culture for 24 h, a CCK-8 kit was used to detect the changes in cell viability.

[3] = system: mice having kidney damage induced by Polymyxin E; experiment: Mouse model of nephrotoxicity by Polymyxin E: kidney histopathology and semiquantitative scoring (SQS); format: in vivo, C57BL/6 mice; details: for pathological damage score: 10 days, P<0.001
Description: as §1, §2, §3, §4, §5, §6, §7, §8
as §8, with “medium-dose” for “high-dose”, “[…]” for “10”
SU3327 low-dose protection group: the mice were intraperitoneally injected with SU3327 at a single dose of 2.5 mg/kg body weight, concurrently with Polymyxin E in 10 mg/kg, twice, with an interval of 8 hours between doses; i.e., the mice were administered with SU3327 in 2.5 mg/kg body weight per day, concurrently with Polymyxin E in 20 mg/kg body weight per day.
In the experiments above, reference was made to the previously published literature by the inventors for the method of establishing the mouse model of nephrotoxicity by Polymyxin E (Dai C, Tang S, Wang Y, Velkov T, Xiao X. Baicalein acts as a nephroprotectant that ameliorates colistin-induced nephrotoxicity by activating the antioxidant defence mechanism of the kidneys and down-regulating the inflammatory response. J Antimicrob Chemother. 2017 Sep. 1; 72(9):2562-2569).
Following dosing by injection for 10 straight days, the mice were euthanized by intraperitoneal injection with an overdose of sodium pentobarbital (80 mg/kg) 24 hours post the last dosing, and blood and kidney tissues were collected quickly, the serum and tissues were processed as follows.
The isolated, fresh kidney tissues were washed with normal saline, sampled and fixed in 10% neutral formalin for 48 h, after being flushed with water, and then dehydrated, cleared, immersed in paraffin, embedded, sectioned and stained in sequence. The pathological changes in kidney tissues were observed and photographed under a microscope. HE staining: the paraffin sections were taken, and placed in an oven at a constant temperature of 60° C. for 30 min; followed by paraffin removal and dehydration with ethanol, and immersing with double distilled water; hematoxylin staining for 10 min, rinsing with tap water, and differentiation with acid alcohol; flushing with running water until the sections turned blue; 95% ethanol for 30 s, alcoholic eosin staining for 30 s, 95% ethanol for 30 s, and 100% ethanol for 30 s; clearing with Xylene, and sealing with neutral gum.
Following HE staining, damages to the renal tissues were evaluated using a semiquantitative scoring (SQS). […]

p38α = p38α (Homo sapiens, UniProt Q16539); details: cited from earlier work
Chain of p38α (Q16539 whole entry): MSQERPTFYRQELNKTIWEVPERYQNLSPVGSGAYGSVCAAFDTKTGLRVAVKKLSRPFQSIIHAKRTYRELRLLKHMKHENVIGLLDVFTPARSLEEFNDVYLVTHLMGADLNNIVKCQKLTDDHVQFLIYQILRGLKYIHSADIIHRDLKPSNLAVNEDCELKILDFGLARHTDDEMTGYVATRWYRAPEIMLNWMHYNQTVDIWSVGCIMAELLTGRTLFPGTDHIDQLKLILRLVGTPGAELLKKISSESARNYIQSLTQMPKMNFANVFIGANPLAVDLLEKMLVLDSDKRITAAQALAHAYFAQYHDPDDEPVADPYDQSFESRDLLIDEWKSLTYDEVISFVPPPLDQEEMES

JNK = details: read-out: IC50 as JNK inhibitor; cited from earlier work
Akt kinases = details: cited from earlier work
Clostridium difficile = details: laboratory tests, Collins group, Cell 2020; cited from earlier work
E. coli = details: laboratory tests, Collins group, Cell 2020; cited from earlier work
JNK and JIP = details: read-out: IC50 for inhibition of protein interaction between JNK and JIP; cited from earlier work
[4] = system: Mycobacterium tuberculosis; details: laboratory tests, Collins group, Cell 2020; cited from earlier work
[5] = Polymyxin E 20 mg/kg per day i.p. for 10 straight days
[6] = SU3327 at 2.5, 5 and 10 mg/kg i.p. in combination with Polymyxin E 20 mg/kg per day, 10 days

In the case of Polymyxin E, the “level of BUN in the serum compared to control group” value [1, 5] is given as “significantly up-regulated”, the “level of CRE in the serum compared to control group” value [1, 5] is given as “significantly up-regulated” and the “clinical incidence of nephrotoxicity” value [2] is given as “up to 60%”. The “clinical incidence of neurotoxicity” value [2] was “about 7%”, the “clinical incidence of symptoms from mild peripheral neurotoxicity” value [2] was no more than 100% and the cell viability (HEK293 cells; polymyxin alone 2 mM, 24 hours) was 55.3%. For the same compound, the “average of pathological semiquantitative score” value [3, 5] was 3 and the “kidney pathological damages (epithelial cell shedding, necrosis, tubular casts)” value [3, 5] was “obvious pathological damages”.
For `Nc1nnc(Sc2ncc([N+](=O)[O-])s2)s1` [SU3327], the “activity for p38α” value (p38α) is listed as “low activity”, the IC50 (JNK) is listed as 700 nM and the “activity for Akt kinases” value (Akt kinases) is listed as “low activity”. The “level of creatinine in the serum compared to Polymyxin E model group” value [1, 6] was “significantly lowered”, the “level of urea nitrogen in the serum compared to Polymyxin E model group” value [1, 6] was “significantly lowered” and the “killing of Clostridium difficile” value (Clostridium difficile) was “killed”. The cell viability (HEK293 cells; SU3327 2.5 μM in combination with Polymyxin E 2 mM, 24 h) was 68.5%, the “cell viability compared to treatment group with polymyxin alone” value (HEK293 cells; SU3327 (5-0.625 μM) in combination with Polymyxin E 2 mM, 24 h) was “increased to some extent” and the “cell viability compared with control group” value (HEK293 cells; SU3327 alone in 5 μM, 2.5 μM, 1.25 μM and 0.625 μM, 24 h) was “significantly changed”. For the same compound, the “growth of E. coli” value (E. coli) was “effectively prevented the growth”, the IC50 (JNK and JIP) was 239 nM and the pathological damage score ([3]; SU3327 2.5 mg/kg i.p. in combination with Polymyxin E 20 mg/kg per day) was 1. For the same compound, the pathological damage score ([3]; SU3327 5 mg/kg i.p. in combination with Polymyxin E 20 mg/kg per day) was 0.75, the pathological damage score ([3]; SU3327 10 mg/kg i.p. in combination with Polymyxin E 20 mg/kg per day) was 0.5 and the “pathological changes in renal tubules” value ([3]; SU3327 in combination with Polymyxin E) was “remarkably improved”. The “killing of Mycobacterium tuberculosis” value [4] was “killed”.
